From patent US9045459B2, “Phenalkylamine derivatives, pharmaceutical compositions containing them, and their use in therapy” (AbbVie Deutschland GmbH & Co. KG, priority 2010, dated 2015)

Target: human GlyT1c transporter (Homo sapiens (Human), UniProt P48067)
Assay: Radioligand binding assay using recombinant CHO cell membranes expressing human GlyT1
Details: read-out: radioligand binding Kiapp
Procedure: 2. Radioligand binding assays using recombinant CHO cell membranes expressing human GlyT1:
Radioligand binding to human GlyT1c transporter-expressing membranes was determined as described in Mezler et al., Molecular Pharmacology 74:1705-1715, 2008.

Chain of human GlyT1c transporter (P48067 whole entry): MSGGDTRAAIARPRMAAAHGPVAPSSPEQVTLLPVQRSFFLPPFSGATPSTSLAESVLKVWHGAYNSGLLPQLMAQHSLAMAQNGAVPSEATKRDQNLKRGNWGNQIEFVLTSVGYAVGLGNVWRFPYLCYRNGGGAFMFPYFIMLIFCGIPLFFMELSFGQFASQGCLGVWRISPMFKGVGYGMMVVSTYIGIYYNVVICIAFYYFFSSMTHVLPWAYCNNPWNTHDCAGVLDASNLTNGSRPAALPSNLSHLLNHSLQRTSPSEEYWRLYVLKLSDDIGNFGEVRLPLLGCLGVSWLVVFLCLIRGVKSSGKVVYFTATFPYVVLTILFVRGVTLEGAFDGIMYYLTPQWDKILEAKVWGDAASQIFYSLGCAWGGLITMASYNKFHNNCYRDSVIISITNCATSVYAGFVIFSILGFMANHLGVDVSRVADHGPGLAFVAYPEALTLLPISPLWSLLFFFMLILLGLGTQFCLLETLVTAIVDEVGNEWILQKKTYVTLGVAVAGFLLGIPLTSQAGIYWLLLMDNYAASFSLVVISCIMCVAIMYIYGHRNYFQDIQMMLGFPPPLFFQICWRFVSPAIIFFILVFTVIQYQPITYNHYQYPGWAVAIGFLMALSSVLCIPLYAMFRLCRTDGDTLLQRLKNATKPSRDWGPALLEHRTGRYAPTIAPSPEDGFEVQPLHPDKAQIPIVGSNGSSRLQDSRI

| Ki | Structure (SMILES) |
| --- | --- |
| ≤ 10 µM | Cn1cnc(S(=O)(=O)N2CCc3ccc(C(CN)Cc4ccccc4)cc3C2)c1 (centres unmarked) [Example 1, 2-(2-(1-Methyl-1H-imidazol-4-ylsulfonyl)-1,2,3,4-tetrahydroisoquinolin-7-yl)-3-phenylpropan-1-amine] |
| ≤ 10 µM | Cn1cc(S(=O)(=O)N2CCc3ccc(C(CN)Cc4ccccc4)cc3C2)cn1 (centres unmarked) [Example 2, 2-(2-(1-Methyl-1H-pyrazol-4-ylsulfonyl)-1,2,3,4-tetrahydroisoquinolin-7-yl)-3-phenylpropan-1-amine] |
